Consider three compounds from paper PMC7170309, “Imidazopyridine-fused [1,3]diazepinones: modulations of positions 2 to 4 and their impacts on the anti-melanoma activity” (Journal of Enzyme Inhibition and Medicinal Chemistry, 2020).

One data set has as its system MDA-MB-435 cells. Description: DNA cell cycle analysis (flow cytometry). It counts as cell-based, human. To be noted: 5 µM; for proportion of cells in G2/M phase: control 14.3%; for proportion of cells in G1 phase: control 47.1%. Here is the method: The cell cycle analysis was performed as previously described to compare data with our previous results. Flow cytometric analysis was performed on 350,000 MDA-MB-435 cells seeded in culture dishes (60 mm diameter) and allowed to grow for 48 h. Cells were then treated with compound 5 or 8 at 5 µM concentration for 16 h and 48 h. After treatment cells were harvested and fixed with 70% ethanol. The fixed cells were then incubated with 10 mg/mL RNase A (Sigma Aldrich) and 1 mg/mL propidium iodide (Sigma Aldrich), in the dark, for 24 h at 4 °C. Finally, DNA content of the cells was analysed using Gallios Beckman Coulter flow cytometer with FlowJo software v1.0.
Thus, compound 5 could probably shared a common mechanism of action with JMV5038, contrary to compound 8. DNA cell cycle analysis was performed using MDA-MB-435 cells treated with either compound 5 or compound 8, and compared to that obtained with cells treated with vehicle (DMSO) as a negative control. Cell cycle pattern changes of MDA-MB-435 cells were investigated using fluorescence-activated cell sorting (FACS) (Figure 5 and Figure S1, SI). In this experiment MDA-MB-435 cells were treated with or without 5 µM concentration of compound 5 or 8 for 16 h and 48 h.
On the technique in general: In flow cytometry, cells or beads pass a laser one at a time.

In the next data set the test system is K-562. Description: NCI-60 SRB assay, K-562 (Leukemia). The data set is classed as cell-based, human. The following applies: 10 µM, 48 h; for G%: growth vs untreated control. Here is the method:
Primary anticancer assay was performed on a panel of 60 human cancer cell lines derived from nine neoplastic diseases, in accordance with the protocol of the Drug Evaluation Branch, National Cancer Institute, Bethesda, Maryland, USA[22]. Cells were incubated with tested compounds at 10 µM for 48 h. The growth percentage was evaluated spectrophotometrically using a protein binding dye, SRB. Results for each tested compound were reported as the percent of growth of treated cells when compared to untreated control cells.
To better compare the activity profile of these two series of compounds, compounds 5 and 8 were selected and then evaluated towards a panel of sixty cancer cell lines corresponding to nine different cancer types, i.e. leukaemia, melanoma, as well as lung, colon, central nervous system, ovarian, renal, prostate and breast cancers (NCI evaluation). Indeed, it is now well established that the growth inhibitory patterns of anticancer drugs against the NCI-60 cell line panel correlated well with their modes of action. For example, compounds that bind to tubulin have similar growth inhibition patterns regardless of which site on tubulin they bind[30]. […] Compounds were tested using the sulforhodamine B (SRB) assay that provides a direct cell density index. The amount of dye incorporated by the cells increases with the increase of the total protein biomass. Cells were incubated for 48 h with compounds at 10 µM concentration, then cell growth was evaluated spectrophotometrically and presented as the percent of untreated control cells. Values of the most sensitive cell lines were compared to those obtained with JMV5038 (Figure 4, for all data see SI).
Background: The SRB assay estimates cell density from bound dye.

The nature of data set [1]: Calculated physicochemical parameters (molsoft cheminformatic tool). To be noted: predicted. Here is the method: Data set of physicochemical properties (cLogP, TPSA and molecular volume, Table 2) were calculated using the online available molsoft cheminformatic tool[23]. IC50 values of the compounds included in the test are presented in Table 1 for the correlations between IC50 and physicochemical properties of compounds modified in position 2 (Figure 2), and in Table S1 (SI) for the correlations between in vitro anti-cancer activity of JMV5038, compound 5 and […] on the NCI cell line panel (Figure 4). Pearson’s correlation coefficient r and level of significant p values were calculated using Origin Pro 2019.

Data set [2] has as its system NIH-3T3 non-cancerous cells. Further details: method as in PMID 24561668. To be noted: even at 100 µM; cited from earlier work.

Consider `C[C@@H]1NC(c2csc3ccccc23)=Nc2nc3ccccn3c2C1=O` [Compound 8, (4S)-4-methyl-2-benzothiophen-3-yl-3,4-dihydro-5H-pyrido[1’,2’:1,2]imidazo[4,5-d][1,3]diazepin-5-one], for which, in the data set with MDA-MB-435 cells (16 h), the “proportion of cells in G2/M phase” value is 20.8% and the “proportion of cells in G1 phase” value amounted to 53.0%. For the same compound, in the data set with MDA-MB-435 cells (48 h), the “proportion of cells in G2/M phase” value stood at 15.4%. In addition, in the data set with K-562, the “Mean G% - G%” value is recorded as -6,34% and the G% is reported as 81,21%.

Take `C[C@@H]1NC(c2ccc(N=[N+]=[N-])cc2)=Nc2nc3ccccn3c2C1=O` [Compound 5, (4S)-4-methyl-2-(4-azidophenyl)-3,4-dihydro-5H-pyrido[1’,2’:1,2]imidazo[4,5-d][1,3]diazepin-5-one]: the “molecular volume increase compared to JMV5038” value in data set [1] is given as 4%. In addition, the “proportion of cells in G2/M phase” value in the data set with MDA-MB-435 cells (16 h) was determined as 33.1%; in the data set with MDA-MB-435 cells (48 h), 18.4%. In the data set with MDA-MB-435 cells (16 h), the “proportion of cells in G1 phase” value was “decrease of cells in G1 phase”. Also, the “cells in subG1 phase (apoptosis)” value in the data set on MDA-MB-435 cells (time not explicit (sentence follows 48 h), control 1.2%) amounted to 2.4%.

`C[C@@H]1NC(c2ccc(Br)cc2)=Nc2nc3ccccn3c2C1=O` [JMV5038]: in the data set with K-562, the “Mean G% - G%” value was 29,92% and the G% is reported as 24,32%. Besides, the “cytotoxic activity on NIH-3T3 fibroblasts” value in data set [2] is “no significant cytotoxic activity”.
